Assay results reported in patent US20240317752A1, “6-SUBSTITUTED-9H-PURINE DERIVATIVES AND RELATED USES” (Black Diamond Therapeutics, Inc., priority 2021, published 2024).

Biological target: T1, BaF3 BRAF-KIAA1549 fusion cells (Homo sapiens, UniProt P15056)
T1 construct: The BRAF-KIAA1549 fusion mutant was subcloned into pMXs-IRES-Blasticidin (RTV-016, Cell Biolabs, San Diego, CA); fused on or other part: Q9HCM3 (UPF0606 protein KIAA1549)
Assay: BaF3 BRAF-KIAA1549 fusion cell proliferation assay (CellTiterGlo)
Type: cell-based
Conditions: 96 hours incubation, potency code
Summary of the method: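 BaF3 cells stably transduced with a BRAF-KIAA1549 fusion, blasticidin-selected and growing without IL-3, were treated with compound for 96 h in RPMI/10% heat-inactivated FBS. Viability read as ATP content by CellTiterGlo luminescence, normalised to DMSO-treated cells. IC50 by Levenberg-Marquardt fit.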

T1 sequence (P15056 whole entry, change not shown, the tested form may be a part): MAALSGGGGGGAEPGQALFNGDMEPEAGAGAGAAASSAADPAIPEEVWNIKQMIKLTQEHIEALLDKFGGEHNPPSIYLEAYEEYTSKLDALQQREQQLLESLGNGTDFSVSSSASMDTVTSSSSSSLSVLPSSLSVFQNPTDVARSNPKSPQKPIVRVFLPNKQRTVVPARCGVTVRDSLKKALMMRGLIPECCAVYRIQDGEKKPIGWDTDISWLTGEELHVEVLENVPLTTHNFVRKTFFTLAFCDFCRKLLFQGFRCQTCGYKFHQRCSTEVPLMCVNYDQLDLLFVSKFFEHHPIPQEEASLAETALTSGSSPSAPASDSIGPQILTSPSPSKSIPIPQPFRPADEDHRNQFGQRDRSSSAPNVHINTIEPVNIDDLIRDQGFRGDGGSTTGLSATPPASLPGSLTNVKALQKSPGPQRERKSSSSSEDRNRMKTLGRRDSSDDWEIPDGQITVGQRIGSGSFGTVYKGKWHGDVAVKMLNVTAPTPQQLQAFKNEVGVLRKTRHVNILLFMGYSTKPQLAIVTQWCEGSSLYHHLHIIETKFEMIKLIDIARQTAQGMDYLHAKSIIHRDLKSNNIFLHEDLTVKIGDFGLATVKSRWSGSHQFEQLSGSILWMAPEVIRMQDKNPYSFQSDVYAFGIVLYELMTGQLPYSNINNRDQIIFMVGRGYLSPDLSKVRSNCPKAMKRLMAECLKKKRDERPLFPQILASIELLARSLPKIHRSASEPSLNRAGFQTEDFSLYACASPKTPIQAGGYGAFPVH

For `Cc1ccc(NC(=O)CN2CCCNCC2)cc1Nc1ncccc1-c1ncnc2[nH]cnc12` [IA-134, N-(3-((3-(9H-purin-6-yl)pyridin-2-yl)amino)-4-methylphenyl)-2-(1,4-diazepan-1-yl)acetamide], which GI50 is on record?
Its GI50 is at least 500 nM.

`Cc1ccc(NC(=O)CC2CCCCOC2)cc1Nc1ncccc1-c1ncnc2[nH]cnc12` (stereo not drawn) [IA-99, N-(3-(3-(9H-purin-6-yl)pyridin-2-ylamino)-4-methylphenyl)-2-(oxepan-3-yl)acetamide] was tested. Which GI50 did it give?
The GI50 was 20 to 100 nM.

For `Cc1ncc(NC(=O)c2cc(C(F)(F)F)ccn2)cc1Nc1ncccc1-c1ncnc2[nH]cnc12` [Compound I-16, N-(5-(3-(9H-purin-6-yl)pyridin-2-ylamino)-6-methylpyridin-3-yl)-4-(trifluoromethyl)picolinamide], which GI50 is on record?
Its GI50 is under 20 nM.

Which GI50 does the source give for `O=C(Nc1ccc(F)c(Nc2ncccc2-c2ncnc3[nH]cnc23)c1)c1cc(C(F)(F)F)ccn1` [Compound I-20] here?
The GI50 was 20 to 100 nM.

Which GI50 does the source give for `Cc1ccc(NC(=O)c2cc(C(F)(F)F)ccn2)cc1Nc1nccc(F)c1-c1ncnc2[nH]cnc12` [IA-117, N-(3-(4-fluoro-3-(9H-purin-6-yl)pyridin-2-ylamino)-4-methylphenyl)-4-(trifluoromethyl)picolinamide] here?
Its GI50 is 100 to 500 nM.

With `Cc1ccc(NC(=O)c2ncc(C)c(C(F)(F)F)c2F)cc1Nc1ncccc1-c1ncnc2[nH]cnc12` [IA-91, N-(3-(3-(9H-purin-6-yl)pyridin-2-ylamino)-4-methylphenyl)-3-fluoro-5-methyl-4-(trifluoromethyl)picolinamide] as the compound, how does the GI50 read?
The GI50 was 20 to 100 nM.

`Cc1ccc(NC(=O)CN2CCCN(C)CC2)cc1Nc1ncccc1-c1ncnc2[nH]cnc12` [IA-135, N-(3-((3-(9H-purin-6-yl)pyridin-2-yl)amino)-4-methylphenyl)-2-(4-methyl-1,4-diazepan-1-yl)acetamide] was tested. Which GI50 did it give?
The GI50 was at least 500 nM.

With `Cc1ccc(NC(=O)CC2CCN(C)CCO2)cc1Nc1ncccc1-c1ncnc2[nH]cnc12` (stereo not drawn) [IA-136, N-(3-(3-(9H-purin-6-yl)pyridin-2-ylamino)-4-methylphenyl)-2-(4-methyl-1,4-oxazepan-7-yl)acetamide] as the compound, how does the GI50 read?
The GI50 was at least 500 nM.

`Cc1ccc(NC(=O)CN2CCC[C@@H](C(F)(F)F)C2)cc1Nc1ncccc1-c1ncnc2[nH]cnc12` [IA-107, (R)—N-(3-((3-(9H-purin-6-yl)pyridin-2-yl)amino)-4-methylphenyl)-2-(3-(trifluoromethyl)piperidin-1-yl)acetamide] was tested. Which GI50 did it give?
Its GI50 is under 20 nM.

For `Cc1ccc(NC(=O)CC2CCCCCO2)cc1Nc1ncccc1-c1ncnc2[nH]cnc12` (stereo not drawn) [Compound I-82, N-(3-((3-(9H-purin-6-yl)pyridin-2-yl)amino)-4-methylphenyl)-2-(oxepan-2-yl)acetamide], which GI50 is on record?
The GI50 was under 20 nM.

Which GI50 does the source give for `Cc1ccc(NC(=O)CC2CCCNCC2)cc1Nc1ncccc1-c1ncnc2[nH]cnc12` (stereo not drawn) [IA-131, N-(3-(3-(9H-purin-6-yl)pyridin-2-ylamino)-4-methylphenyl)-2-(azepan-4-yl)acetamide] here?
The GI50 was at least 500 nM.

Which GI50 does the source give for `Cc1ccc(NC(=O)CN2CCC[C@H](C(F)(F)F)C2)cc1Nc1ncccc1-c1ncnc2[nH]cnc12` [IA-103, (S)—N-(3-(3-(9H-purin-6-yl)pyridin-2-ylamino)-4-methylphenyl)-2-(3-(trifluoromethyl)piperidin-1-yl)acetamide] here?
The GI50 was under 20 nM.

For `O=C(Nc1ccc(Cl)c(Nc2ncccc2-c2ncnc3[nH]cnc23)c1)c1cc(C(F)(F)F)ccn1` [Compound I-21, N-(3-(3-(9H-purin-6-yl)pyridin-2-ylamino)-4-chlorophenyl)-4-(trifluoromethyl)picolinamide], which GI50 is on record?
Its GI50 is 20 to 100 nM.

With `Cc1ccc(NC(=O)c2cc(C(F)(F)F)ccn2)cc1Nc1nccnc1-c1ncnc2[nH]cnc12` [IA-120, N-(3-(3-(9H-purin-6-yl)pyrazin-2-ylamino)-4-methylphenyl)-4-(trifluoromethyl)picolinamide] as the compound, how does the GI50 read?
The GI50 was 20 to 100 nM.

How did the GI50 turn out when `Cc1ccc(NC(=O)C[C@H]2CCN[C@@H](C(F)(F)F)C2)cc1Nc1ncccc1-c1ncnc2[nH]cnc12` (single isomer, unassigned) [IA-141] was run?
The GI50 was 100 to 500 nM.

`Cc1ccc(NC(=O)c2ccc(Cl)c(N(C)C)c2)cc1Nc1ncccc1-c1ncnc2[nH]cnc12` [Compound I-81, N-(3-((3-(9H-purin-6-yl)pyridin-2-yl)amino)-4-methylphenyl)-4-chloro-3-(dimethylamino)benzamide] was tested. Which GI50 did it give?
The GI50 was under 20 nM.

Which GI50 does the source give for `Cc1ccc(NC(=O)c2cc(C(F)(F)F)ccn2)cc1Nc1nnccc1-c1ncnc2[nH]cnc12` [IA-121, N-(3-((4-(9H-purin-6-yl)pyridazin-3-yl)amino)-4-methylphenyl)-4-(trifluoromethyl)picolinamide] here?
Its GI50 is at least 500 nM.

How did the GI50 turn out when `COc1c(C(F)(F)F)ccnc1C(=O)Nc1ccc(C)c(Nc2ncccc2-c2ncnc3[nH]cnc23)c1` [IA-101, N-(3-(3-(9H-purin-6-yl)pyridin-2-ylamino)-4-methylphenyl)-3-methoxy-4-(trifluoromethyl)picolinamide] was run?
The GI50 was under 20 nM.

How did the GI50 turn out when `Cc1ncc(NC(=O)c2ccnc(C3(C#N)CC3)c2)cc1Nc1ncccc1-c1ncnc2[nH]cnc12` [Compound I-54, N-(5-(3-(9H-purin-6-yl)pyridin-2-ylamino)-6-methylpyridin-3-yl)-2-(1-cyanocyclopropyl)isonicotinamide] was run?
Its GI50 is 20 to 100 nM.

With `CCc1cnc(C(=O)Nc2ccc(C)c(Nc3ncccc3-c3ncnc4[nH]cnc34)c2)cc1C(F)(F)F` [IA-92, N-(3-(3-(9H-purin-6-yl)pyridin-2-ylamino)-4-methylphenyl)-5-ethyl-4-(trifluoromethyl)picolinamide] as the compound, how does the GI50 read?
The GI50 was 20 to 100 nM.

For `Cc1ccc(NC(=O)c2ccc(Cl)c(Cl)c2)cc1Nc1ncccc1-c1ncnc2[nH]cnc12` [Compound I-49, N-(3-(3-(9H-purin-6-yl)pyridin-2-ylamino)-4-methylphenyl)-3,4-dichlorobenzamide], which GI50 is on record?
Its GI50 is under 20 nM.

With `COc1cc(C(=O)Nc2ccc(C)c(Nc3ncccc3-c3ncnc4[nH]cnc34)c2)ccc1Cl` [Compound I-41, N-(3-((3-(9H-purin-6-yl)pyridin-2-yl)amino)-4-methylphenyl)-4-chloro-3-methoxybenzamide] as the compound, how does the GI50 read?
Its GI50 is under 20 nM.

With `Cc1ccc(NC(=O)CC2CCC(F)(F)CC2)cc1Nc1ncccc1-c1ncnc2[nH]cnc12` [Compound I-14, N-(3-(3-(9H-purin-6-yl)pyridin-2-ylamino)-4-methylphenyl)-2-(4,4-difluorocyclohexyl)acetamide] as the compound, how does the GI50 read?
Its GI50 is under 20 nM.

With `Cc1cc(C)c(Nc2ncccc2-c2ncnc3[nH]cnc23)cc1NC(=O)c1cc(C(F)(F)F)ccn1` [IA-119, N-(5-((3-(9H-purin-6-yl)pyridin-2-yl)amino)-2,4-dimethylphenyl)-4-(trifluoromethyl)picolinamide] as the compound, how does the GI50 read?
Its GI50 is 100 to 500 nM.

How did the GI50 turn out when `Cc1ccc(NC(=O)CN2CCCOCC2)cc1Nc1ncccc1-c1ncnc2[nH]cnc12` [IA-133, N-(3-((3-(9H-purin-6-yl)pyridin-2-yl)amino)-4-methylphenyl)-2-(1,4-oxazepan-4-yl)acetamide] was run?
Its GI50 is at least 500 nM.

With `Cc1ccc(NC(=O)c2ccc(Cl)c(C3(C#N)CC3)c2)cc1Nc1ncccc1-c1ncnc2[nH]cnc12` [Compound I-38, N-(3-((3-(9H-purin-6-yl)pyridin-2-yl)amino)-4-methylphenyl)-4-chloro-3-(1-cyanocyclopropyl)benzamide] as the compound, how does the GI50 read?
The GI50 was 20 to 100 nM.

`Cc1ncc(C(=O)Nc2cccc(C3(C#N)CC3)c2)cc1Nc1ncccc1-c1ncnc2[nH]cnc12` [Compound I-58, 5-((3-(9H-purin-6-yl)pyridin-2-yl)amino)-N-(3-(1-cyanocyclopropyl)phenyl)-6-methylnicotinamide] was tested. Which GI50 did it give?
Its GI50 is 20 to 100 nM.

For `Cc1ccc(NC(=O)CC2CCNCCO2)cc1Nc1ncccc1-c1ncnc2[nH]cnc12` (stereo not drawn) [Compound I-83, N-(3-((3-(9H-purin-6-yl)pyridin-2-yl)amino)-4-methylphenyl)-2-(1,4-oxazepan-7-yl)acetamide], which GI50 is on record?
The GI50 was at least 500 nM.

With `Cc1ccc(NC(=O)c2cnc(C)c(C#N)c2)cc1Nc1ncccc1-c1ncnc2[nH]cnc12` [Compound I-48, N-(3-(3-(9H-purin-6-yl)pyridin-2-ylamino)-4-methylphenyl)-5-cyano-6-methylnicotinamide] as the compound, how does the GI50 read?
Its GI50 is at least 500 nM.

`Cc1ccc(NC(=O)c2cc(C(F)(F)F)ccn2)cc1Nc1ncccc1-c1nc(F)nc2[nH]cnc12` [IA-151, N-(3-(3-(2-fluoro-9H-purin-6-yl)pyridin-2-ylamino)-4-methylphenyl)-4-(trifluoromethyl)picolinamide] was tested. Which GI50 did it give?
Its GI50 is at least 500 nM.

Which GI50 does the source give for `Cc1ccc(NC(=O)c2cc(C(F)(F)F)c(OC3CN(C)C3)cn2)cc1Nc1ncccc1-c1ncnc2[nH]cnc12` [IA-94, N-(3-(3-(9H-purin-6-yl)pyridin-2-ylamino)-4-methylphenyl)-5-(1-methylazetidin-3-yloxy)-4-(trifluoromethyl)picolinamide] here?
Its GI50 is 100 to 500 nM.

`Cc1ccc(NC(=O)c2cc(C(F)(F)F)ccn2)cc1Nc1ncccc1-c1ncnc2[nH]c(OCCN(C)C)nc12` [IA-124, N-(3-(3-(8-(2-(dimethylamino)ethoxy)-9H-purin-6-yl)pyridin-2-ylamino)-4-methylphenyl)-4-(trifluoromethyl)picolinamide] was tested. Which GI50 did it give?
The GI50 was 20 to 100 nM.

With `Cc1ccc(NC(=O)C[C@@H]2CCO[C@H](C(F)(F)F)C2)cc1Nc1ncccc1-c1ncnc2[nH]cnc12` (single isomer, unassigned) [IA-149] as the compound, how does the GI50 read?
The GI50 was 20 to 100 nM.

For `Cc1ccc(NC(=O)C[C@@H]2CCC[C@@H](C(F)(F)F)C2)cc1Nc1ncccc1-c1ncnc2[nH]cnc12` (single isomer, unassigned) [IA-140], which GI50 is on record?
Its GI50 is under 20 nM.

With `Cc1ccc(C(=O)Nc2cccc(C(F)(F)F)c2)cc1Nc1ncccc1-c1ncnc2[nH]cnc12` [II-3, 3-((3-(9H-Purin-6-yl)pyridin-2-yl)amino)-4-methyl-N-(3-(trifluoromethyl)phenyl)benzamide] as the compound, how does the GI50 read?
The GI50 was under 20 nM.

How did the GI50 turn out when `Cc1ccc(NC(=O)c2cc(C(F)(F)F)ccn2)cc1Nc1ncccc1-c1ncnc2[nH]cnc12` [Compound I-2, N-(3-(3-(9H-Purin-6-yl)pyridin-2-ylamino)-4-methylphenyl)-4-(trifluoromethyl)picolinamide] was run?
The GI50 was under 20 nM.
